The results in this text go back to ChEMBL document CHEMBL5291721, “A preclinical secondary pharmacology resource illuminates target-adverse drug reaction associations of marketed drugs” (Nat Commun, 2023).

SMILES strings stand for the structures.

Test [1] deals with T1, Type-1 angiotensin II receptor (Homo sapiens, UniProt P30556).
T1 sequence (P30556 whole entry): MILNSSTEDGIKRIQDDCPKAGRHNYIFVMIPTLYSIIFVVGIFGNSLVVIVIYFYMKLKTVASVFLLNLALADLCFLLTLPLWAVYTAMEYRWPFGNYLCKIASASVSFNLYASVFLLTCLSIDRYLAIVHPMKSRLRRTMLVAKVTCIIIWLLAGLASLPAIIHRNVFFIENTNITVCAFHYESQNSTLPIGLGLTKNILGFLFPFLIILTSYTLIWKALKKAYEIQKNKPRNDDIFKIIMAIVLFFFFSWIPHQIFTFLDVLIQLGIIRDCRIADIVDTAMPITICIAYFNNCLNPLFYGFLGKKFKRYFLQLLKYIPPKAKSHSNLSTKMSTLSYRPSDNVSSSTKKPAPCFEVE

In test [2] the target is Vasopressin V1a receptor (Homo sapiens, UniProt P37288).
Sequence of Vasopressin V1a receptor (P37288 whole entry): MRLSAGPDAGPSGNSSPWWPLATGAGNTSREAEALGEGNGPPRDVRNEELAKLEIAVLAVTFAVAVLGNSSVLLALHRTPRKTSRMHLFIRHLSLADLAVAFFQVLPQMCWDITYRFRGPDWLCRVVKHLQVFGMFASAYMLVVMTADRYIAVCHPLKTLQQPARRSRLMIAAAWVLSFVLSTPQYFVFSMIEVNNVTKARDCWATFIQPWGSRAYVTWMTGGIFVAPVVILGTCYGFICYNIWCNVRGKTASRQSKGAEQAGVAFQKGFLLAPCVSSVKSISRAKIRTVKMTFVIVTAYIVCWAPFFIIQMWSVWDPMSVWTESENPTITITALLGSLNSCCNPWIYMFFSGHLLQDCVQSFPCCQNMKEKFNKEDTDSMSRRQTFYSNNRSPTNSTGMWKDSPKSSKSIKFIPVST
Test [3] addresses T2, Estrogen receptor (Homo sapiens, UniProt P03372).
T2 sequence (P03372 whole entry): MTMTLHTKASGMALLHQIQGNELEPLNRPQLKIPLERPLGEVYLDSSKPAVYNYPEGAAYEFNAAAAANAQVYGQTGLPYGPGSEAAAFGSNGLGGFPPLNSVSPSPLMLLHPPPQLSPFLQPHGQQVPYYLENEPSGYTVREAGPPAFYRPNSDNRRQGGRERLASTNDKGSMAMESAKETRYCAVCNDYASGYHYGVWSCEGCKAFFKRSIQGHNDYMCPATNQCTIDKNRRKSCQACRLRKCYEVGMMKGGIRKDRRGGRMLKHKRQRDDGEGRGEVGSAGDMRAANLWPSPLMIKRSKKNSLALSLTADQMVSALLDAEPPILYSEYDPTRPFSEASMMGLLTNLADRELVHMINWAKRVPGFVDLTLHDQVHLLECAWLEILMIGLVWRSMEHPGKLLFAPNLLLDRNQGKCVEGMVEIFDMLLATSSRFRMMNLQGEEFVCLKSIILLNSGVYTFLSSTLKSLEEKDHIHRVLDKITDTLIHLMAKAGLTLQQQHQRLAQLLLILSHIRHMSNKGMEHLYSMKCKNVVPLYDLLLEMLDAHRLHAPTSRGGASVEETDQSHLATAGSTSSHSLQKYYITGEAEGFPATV

The target of test [4] is Growth hormone secretagogue receptor type 1 (Homo sapiens, UniProt Q92847).
Sequence of Growth hormone secretagogue receptor type 1 (Q92847 whole entry): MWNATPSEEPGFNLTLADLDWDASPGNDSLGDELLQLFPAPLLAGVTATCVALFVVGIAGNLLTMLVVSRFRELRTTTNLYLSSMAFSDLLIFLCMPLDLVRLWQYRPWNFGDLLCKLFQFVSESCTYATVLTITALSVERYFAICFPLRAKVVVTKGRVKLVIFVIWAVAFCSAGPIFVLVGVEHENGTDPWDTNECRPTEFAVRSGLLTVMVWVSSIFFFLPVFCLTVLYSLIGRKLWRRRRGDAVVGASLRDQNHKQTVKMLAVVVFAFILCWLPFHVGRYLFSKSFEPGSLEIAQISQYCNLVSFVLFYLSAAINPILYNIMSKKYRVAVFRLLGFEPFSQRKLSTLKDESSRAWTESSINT
Test [5] has as its target 5-hydroxytryptamine receptor 2A (Homo sapiens, UniProt P28223). It is filed as functional, cell-based.
The target in test [6] is T3, Neuropeptide Y receptor type 1 (Homo sapiens, UniProt P25929).
T3 sequence (P25929 whole entry): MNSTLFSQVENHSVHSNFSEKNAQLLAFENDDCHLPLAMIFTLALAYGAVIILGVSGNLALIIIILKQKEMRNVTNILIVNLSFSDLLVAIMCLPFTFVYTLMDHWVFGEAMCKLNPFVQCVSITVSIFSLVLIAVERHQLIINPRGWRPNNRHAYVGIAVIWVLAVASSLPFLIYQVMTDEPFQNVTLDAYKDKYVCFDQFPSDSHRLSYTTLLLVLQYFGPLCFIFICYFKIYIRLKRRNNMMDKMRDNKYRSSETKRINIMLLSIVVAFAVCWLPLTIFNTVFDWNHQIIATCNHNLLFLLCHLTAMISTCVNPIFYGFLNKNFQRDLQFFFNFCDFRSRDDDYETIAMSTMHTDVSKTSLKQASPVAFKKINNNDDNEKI

Test [7] has as its target Mu-type opioid receptor (Homo sapiens, UniProt P35372). Kind of test: biochemical. The test is classed as functional.
Test [8] has as its target T4, Equilibrative nucleoside transporter 1 (Homo sapiens, UniProt Q99808).
T4 sequence (Q99808 whole entry): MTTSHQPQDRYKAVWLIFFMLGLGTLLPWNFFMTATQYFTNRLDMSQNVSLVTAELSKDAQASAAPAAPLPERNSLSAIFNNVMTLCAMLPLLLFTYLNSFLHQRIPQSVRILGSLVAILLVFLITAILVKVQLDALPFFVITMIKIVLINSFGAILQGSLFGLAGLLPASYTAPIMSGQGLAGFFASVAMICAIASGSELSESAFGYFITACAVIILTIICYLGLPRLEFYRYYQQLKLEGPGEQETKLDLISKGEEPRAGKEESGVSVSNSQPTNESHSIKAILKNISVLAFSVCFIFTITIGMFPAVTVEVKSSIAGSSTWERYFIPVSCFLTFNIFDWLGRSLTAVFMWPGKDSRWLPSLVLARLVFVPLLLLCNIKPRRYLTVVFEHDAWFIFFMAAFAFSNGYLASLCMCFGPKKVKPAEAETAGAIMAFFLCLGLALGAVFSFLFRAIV

The target of test [9] is T5, Thromboxane A2 receptor (Homo sapiens, UniProt P21731).
T5 sequence (P21731 whole entry): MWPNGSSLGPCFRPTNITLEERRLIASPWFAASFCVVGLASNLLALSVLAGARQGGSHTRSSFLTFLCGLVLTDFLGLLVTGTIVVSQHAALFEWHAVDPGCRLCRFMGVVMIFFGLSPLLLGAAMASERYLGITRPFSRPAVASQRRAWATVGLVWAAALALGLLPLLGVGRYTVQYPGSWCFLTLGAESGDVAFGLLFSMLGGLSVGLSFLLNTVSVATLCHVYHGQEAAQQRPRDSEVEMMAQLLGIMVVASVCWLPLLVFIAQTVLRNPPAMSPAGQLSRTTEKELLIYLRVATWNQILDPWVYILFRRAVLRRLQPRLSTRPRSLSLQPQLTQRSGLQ

In test [10] the target is Melanocortin receptor 4 (Homo sapiens, UniProt P32245).
Sequence of Melanocortin receptor 4 (P32245 whole entry): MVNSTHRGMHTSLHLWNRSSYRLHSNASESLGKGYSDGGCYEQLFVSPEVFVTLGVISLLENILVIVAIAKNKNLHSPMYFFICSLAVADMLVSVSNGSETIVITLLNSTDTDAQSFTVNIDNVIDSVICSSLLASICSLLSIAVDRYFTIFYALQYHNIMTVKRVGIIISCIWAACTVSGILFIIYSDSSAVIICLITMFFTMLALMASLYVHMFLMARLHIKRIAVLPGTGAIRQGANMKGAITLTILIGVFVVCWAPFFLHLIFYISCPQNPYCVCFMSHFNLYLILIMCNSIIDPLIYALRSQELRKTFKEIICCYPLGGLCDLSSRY
Further: assay procedure not described here.

Sequence of Mu-type opioid receptor (P35372 whole entry): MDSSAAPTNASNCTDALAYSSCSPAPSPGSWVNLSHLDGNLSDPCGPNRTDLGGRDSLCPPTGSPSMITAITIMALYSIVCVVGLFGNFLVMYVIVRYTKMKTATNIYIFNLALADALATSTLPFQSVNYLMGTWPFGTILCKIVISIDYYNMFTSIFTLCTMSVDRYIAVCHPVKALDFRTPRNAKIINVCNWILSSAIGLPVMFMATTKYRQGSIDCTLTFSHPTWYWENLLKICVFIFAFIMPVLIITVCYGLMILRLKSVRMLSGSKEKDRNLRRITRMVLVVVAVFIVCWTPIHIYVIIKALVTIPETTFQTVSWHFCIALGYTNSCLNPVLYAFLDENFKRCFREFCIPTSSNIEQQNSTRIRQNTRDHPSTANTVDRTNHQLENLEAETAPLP
Sequence of 5-hydroxytryptamine receptor 2A (P28223 whole entry): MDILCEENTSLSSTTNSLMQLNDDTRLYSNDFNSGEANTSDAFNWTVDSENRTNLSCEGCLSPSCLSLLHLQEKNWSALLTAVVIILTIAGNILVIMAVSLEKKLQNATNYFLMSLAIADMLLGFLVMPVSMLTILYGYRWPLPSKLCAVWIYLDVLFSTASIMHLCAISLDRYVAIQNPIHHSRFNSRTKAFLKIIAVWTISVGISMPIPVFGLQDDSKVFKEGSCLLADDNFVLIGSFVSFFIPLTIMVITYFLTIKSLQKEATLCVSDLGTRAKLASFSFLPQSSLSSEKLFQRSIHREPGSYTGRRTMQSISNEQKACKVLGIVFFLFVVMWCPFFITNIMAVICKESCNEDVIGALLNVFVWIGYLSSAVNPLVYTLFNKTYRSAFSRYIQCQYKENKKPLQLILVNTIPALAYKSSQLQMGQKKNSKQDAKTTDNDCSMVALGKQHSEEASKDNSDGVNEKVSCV

A word on the AC50: it is the midpoint of the concentration-response curve, whichever way the signal moves. Low values mean activity at low concentration, high ones activity only at high concentration. Turning to `C[N+](C)(C)CC(=O)O` [BETAINE], the AC50 in test [1], in test [2], in test [3], in test [4], in test [5] and in test [6] was more than 30 µM in each case. The concentration at half-maximal activity (AC50) in test [7], in [8] and in test [9] was more than 30 µM each time.

In the case of `CCCC(=O)N1CCCN(c2nc(N)c3cc(OC)c(OC)cc3n2)CC1` [BUNAZOSIN], the AC50 in test [1], in test [2], in [3], in [4], in test [5] and in test [6] was more than 30 µM throughout. For the same compound, the half-maximal activity concentration (AC50) in test [7] and in test [8] was more than 30 µM throughout.

Consider `CC(=O)N(CC(O)CO)c1c(I)c(C(=O)NCC(O)CO)c(I)c(C(=O)NCC(O)CO)c1I` (centres undefined) [IOHEXOL], for which the AC50 in test [1], in test [2], in [3], in test [4], in [5] and in test [10] was more than 30 µM in each case. Besides, the half-maximal activity concentration (AC50) in test [6], in test [8] and in [9] was more than 30 µM in each case.

As for `CC(C)(N)Cc1ccc(Cl)cc1` [CHLORPHENTERMINE], the half-maximal activity concentration (AC50) in [1], in [2], in test [3], in test [4], in test [5] and in test [10] was more than 30 µM throughout. Moreover, the AC50 in test [6], in [8] and in test [9] was more than 30 µM throughout.

Consider `CC(C(O)c1ccc(O)cc1)N1CCC(Cc2ccccc2)CC1` (centres undefined) [IFENPRODIL], for which the AC50 in [1], in [2], in test [3], in test [4], in test [5] and in [6] was more than 30 µM each time. The concentration at half-maximal activity (AC50) in [7] and in [9] was more than 30 µM in each case.

Turning to `O=C1CCC(N2C(=O)c3ccccc3C2=O)C(=O)N1` (centres undefined) [THALIDOMIDE], the AC50 in [1] was more than 30 µM; in test [2], more than 10 µM; in test [4], more than 30 µM; in test [10] it was more than 30 µM; in test [6], more than 30 µM; in test [8], more than 30 µM. The same compound came in with an AC50 in test [9] of more than 30 µM.

With `CC(C)NCC1CCc2cc(CO)c([N+](=O)[O-])cc2N1` (centres undefined) [OXAMNIQUINE], the AC50 in [1] was more than 10 µM; in test [2], more than 10 µM; in [3], more than 10 µM; in test [4] it was more than 10 µM; in test [5] it was more than 30 µM; in test [10], more than 10 µM. The results for the AC50 in test [6], in test [8] and in test [9] were more than 10 µM, more than 30 µM and more than 10 µM, respectively.

Take `CN(C)[C@@H]1C(O)=C(C(N)=O)C(=O)[C@@]2(O)C(O)=C3C(=O)c4c(O)ccc(Cl)c4[C@@H](O)[C@H]3C[C@@H]12` [DEMECLOCYCLINE]: the concentration at half-maximal activity (AC50) in test [1], in test [2], in [4], in test [5], in test [10] and in [6] was more than 10 µM each time. Moreover, the AC50 in test [8] and in test [9] was more than 10 µM in each case.

For `NS(=O)(=O)c1cc(-c2nnn[nH]2)c(NCc2cccs2)cc1Cl` [AZOSEMIDE], the AC50 in test [1], in test [2], in test [3], in [4], in test [5] and in test [6] was more than 30 µM each time. Besides, the AC50 in test [7], in [8] and in test [9] was more than 30 µM throughout.

For the compound `C=C1C[C@@H]2[C@H](CC[C@]3(C)C(=O)CC[C@@H]23)[C@@]2(C)C=CC(=O)C=C12` [EXEMESTANE], the concentration at half-maximal activity (AC50) in [1], in test [2], in test [3], in test [4], in test [5] and in test [10] was more than 30 µM each time. For the same compound, the AC50 in test [6], in test [8] and in test [9] was more than 30 µM each time.

Regarding `N[C@@H](CSCC(=O)O)C(=O)O` [CARBOCYSTEINE], the AC50 in test [1], in test [2], in [3], in test [4], in [5] and in test [6] was more than 30 µM in each case. For the same compound, the AC50 in [7], in [8] and in test [9] was more than 30 µM throughout.

Take `NS(=O)(=O)c1cc(Cl)c(Cl)c(S(N)(=O)=O)c1` [DICHLORPHENAMIDE]: the AC50 in test [1], in test [2], in [4], in [5], in test [10] and in test [6] was more than 10 µM throughout. Also, the concentration at half-maximal activity (AC50) in [8] and in test [9] was more than 10 µM each time.

As for `CN(CCCN1c2ccccc2CCc2ccccc21)CC(=O)c1ccc(Cl)cc1` [LOFEPRAMINE], the AC50 in test [1] was more than 30 µM; in test [2], more than 30 µM; in test [3], more than 30 µM; in [4], 25 µM; in [5], more than 30 µM; in [6], more than 30 µM. Besides, the AC50 in test [7], in test [8] and in test [9] was more than 30 µM in each case.

In the case of `CN(C/C=C/c1ccccc1)Cc1cccc2ccccc12` [NAFTIFINE], the AC50 in test [1], in [3], in test [4], in [10], in [6] and in test [8] was more than 30 µM in each case. The AC50 in [9] is more than 30 µM.

Consider `CC(=O)O[C@]1(C(C)=O)CC[C@H]2[C@@H]3C[C@H](C)C4=CC(=O)CC[C@]4(C)[C@H]3CC[C@@]21C` [MEDROXYPROGESTERONE ACETATE], for which the half-maximal activity concentration (AC50) in test [1], in [2], in [4], in test [6] and in [8] was more than 30 µM in each case.

On to `O=C(O)c1cccc(-c2noc(-c3ccccc3F)n2)c1`, for which the AC50 in test [9] was more than 30 µM.
